Results on eight molecules are retold here after patent US20230063794A1, “STAPLED TRIAZOLE CO-AGONISTS OF THE GLUCAGON AND GLP-1 RECEPTORS” (Merck Sharp & Dohme LLC, priority 2019, published 2023).

Starred links: 1 amine or outer side, 2 acyl side, 3 side chain; linkers in the order of their positions; H or OH if unused. Positions of bridges follow the written chain, without caps; N, C: chain ends. Non-standard residues stand in square brackets, D forms with d. Residues, ends and D or L forms follow the SMILES beside them. Groups on a side chain read outwards from the residue. Triazole bridges read from a SMILES are 1,4-linked. *: point of attachment. Lys(N3) = [N-]=[N+]=NCCCC[C@H](N)C(=O)O; γGlu = O=C(O)[C@H](CCC(=O)[*:2])N[*:1]; Met(O2) = CS(=O)(=O)CC[C@H](N)C(=O)O; Palmitoyl = CCCCCCCCCCCCCCCC(=O)*; dPra = C#CC[C@@H](N)C(=O)O; Nle = CCCC[C@H](N)C(=O)O; Aib = CC(C)(N)C(=O)O

For the experiment, the target named is T1, human GCGR (Homo sapiens, UniProt P47871).
T1 construct: expressed in transfected cells; grown under Blasticidin and Hygromycin selection
The experiment can be described thus: cAMP activity assay in cells expressing human GCGR. It counts as cell-based. Conditions: for hGCGR/hGLP1R (hTone): ratio of human GCGR EC50 to human GLP1R EC50. On the procedure: Activity of the peptides at the Glucagon receptor (GCGR) and GLP-1 receptor (GLP1R) was measured in a cAMP activity assay.
Peptides were dissolved in 100% DMSO and serially diluted to generate 10 point titrations. The peptide solutions were then transferred into 384-well assay plates (150 nL/well). Assay ready frozen cells expressing human GLP1R or human GCGR were suspended in growth media consisting of DMEM medium (GIBCO), 10% FBS (GIBCO), 1× NEAA(GIBCO), 1× P/S (GIBCO), 10 ug/ml Blasticidin (GIBCO) and 200 μg/mL Hygromycin (GIBCO). Cells were then diluted in assay buffer consisting of PBS (GIBCO), 7.5% BSA (Perkin Elmer), 100 μM RO 20-1724 (Sigma), with or without 20% human serum (MP Biomedical). The cell suspensions (15 μL) were then added to the assay plates containing the peptide solutions (30,000 cells/well for human GCGR; 10,000 cells/well for human GLP1R). The cells were incubated for 1 hour at room temperature in the dark. Production of cAMP was determined using HitHunter™ cAMPXS kits (DiscoverX) following manufacturer protocol. The plates were incubated for overnight at room temperature in the dark. Luminescence was measured using an EnVision Multilabel plate reader (Perkin Elmer). Native GLP-1 and Glucagon (Bachem) are used as control peptides. EC50 values were calculated using uses a 4 parameter logistic fit based on the Levenberg-Marquardt algorithm.

T1 sequence (P47871 26-477): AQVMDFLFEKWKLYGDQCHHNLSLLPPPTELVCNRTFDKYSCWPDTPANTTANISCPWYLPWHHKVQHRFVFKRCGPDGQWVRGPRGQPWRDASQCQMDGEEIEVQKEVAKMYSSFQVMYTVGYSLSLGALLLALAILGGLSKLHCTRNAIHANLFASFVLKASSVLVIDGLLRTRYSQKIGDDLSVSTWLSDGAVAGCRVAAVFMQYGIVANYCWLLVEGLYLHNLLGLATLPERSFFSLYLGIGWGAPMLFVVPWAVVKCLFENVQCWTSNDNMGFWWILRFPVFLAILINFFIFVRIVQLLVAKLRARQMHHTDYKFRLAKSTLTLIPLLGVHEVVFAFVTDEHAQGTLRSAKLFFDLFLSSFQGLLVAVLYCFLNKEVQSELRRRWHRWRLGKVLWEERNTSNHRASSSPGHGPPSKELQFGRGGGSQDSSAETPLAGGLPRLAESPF

For `CCCCCCCCCCCCCCCC(=O)N[C@@H](CCC(=O)N[C@@H](CCC(=O)NCCCC[C@H](NC(=O)[C@H](CC(=O)O)NC(=O)[C@H](CO)NC(=O)[C@@H](NC(=O)[C@H](Cc1ccccc1)NC(=O)[C@@H](NC(=O)CNC(=O)[C@H](CCC(N)=O)NC(=O)[C@@H](CO)NC(=O)[C@@H](N)Cc1c[nH]cn1)[C@@H](C)O)[C@@H](C)O)C(=O)N[C@@H](CO)C(=O)N[C@@H](CCCCN)C(=O)N[C@@H](Cc1ccc(O)cc1)C(=O)N[C@@H](CC(C)C)C(=O)N[C@@H](CC(=O)O)C(=O)N[C@@H]1Cc2cn(nn2)CCCC[C@@H](C(=O)N[C@@H](CC(=O)O)C(=O)N[C@@H](Cc2ccccc2)C(=O)N[C@H](C(=O)N[C@@H](CCC(N)=O)C(=O)N[C@@H](Cc2c[nH]c3ccccc23)C(=O)N[C@@H](CC(C)C)C(=O)N[C@@H](CC(C)C)C(=O)N[C@@H](CC(=O)O)C(=O)N[C@H](C(N)=O)[C@@H](C)O)C(C)C)NC(=O)[C@H](C)NC(=O)[C@H](C)NC(=O)[C@H](CCCNC(=N)N)NC1=O)C(=O)O)C(=O)O` [compound 12] (H-H[dS]QGTFTSDK([γGlu-γGlu-Palmitoyl])SKYLD[dPra]RAA[Lys(N3)]DFVQWLLDT-NH2; triazole 16-20), the “hGCGR/hGLP1R (hTone)” value is listed as 0.8.

For the molecule `CCCCCCCCCCCCCCCC(=O)N[C@@H](CCC(=O)N[C@@H](CCC(=O)NCCCC[C@H](NC(=O)[C@H](CC(=O)O)NC(=O)[C@H](CO)NC(=O)[C@@H](NC(=O)[C@H](Cc1ccccc1)NC(=O)[C@@H](NC(=O)CNC(=O)[C@H](CCC(N)=O)NC(=O)[C@@H](CO)NC(=O)[C@@H](N)Cc1c[nH]cn1)[C@@H](C)O)[C@@H](C)O)C(=O)N[C@@H](CO)C(=O)N[C@@H](CCCCN)C(=O)N[C@@H](Cc1ccc(O)cc1)C(=O)N[C@@H](CC(C)C)C(=O)N[C@@H](CC(=O)O)C(=O)N[C@@H](C)C(=O)N[C@@H](CCCNC(=N)N)C(=O)N[C@@H](C)C(=O)N[C@@H](C)C(=O)N[C@@H]1Cc2cn(nn2)CCCC[C@@H](C(=O)N[C@@H](Cc2c[nH]c3ccccc23)C(=O)N[C@@H](CC(C)C)C(=O)N[C@@H](CC(C)C)C(=O)N[C@@H](CC(=O)O)C(=O)N[C@H](C(N)=O)[C@@H](C)O)NC(=O)[C@H](C(C)C)NC(=O)[C@H](Cc2ccccc2)NC(=O)[C@H](CC(=O)O)NC1=O)C(=O)O)C(=O)O` [compound 13] (H-H[dS]QGTFTSDK([γGlu-γGlu-Palmitoyl])SKYLDARAA[dPra]DFV[Lys(N3)]WLLDT-NH2; triazole 20-24), the “hGCGR/hGLP1R (hTone)” value is listed as 0.4.

In the case of `CCCCCCCCCCCCCCCC(=O)N[C@@H](CCC(=O)N[C@@H](CCC(=O)NCCCC[C@H](NC(=O)[C@H](CC(=O)O)NC(=O)[C@H](CO)NC(=O)[C@@H](NC(=O)[C@H](Cc1ccccc1)NC(=O)[C@@H](NC(=O)CNC(=O)[C@H](CCC(N)=O)NC(=O)C(C)(C)NC(=O)[C@@H](N)Cc1c[nH]cn1)[C@@H](C)O)[C@@H](C)O)C(=O)N[C@@H](CO)C(=O)N[C@@H](CCCCN)C(=O)N[C@@H](Cc1ccc(O)cc1)C(=O)N[C@@H](CC(C)C)C(=O)N[C@@H](CC(=O)O)C(=O)NC(C)(C)C(=O)N[C@@H](CCCNC(=N)N)C(=O)N[C@@H](C)C(=O)N[C@@H](C)C(=O)N[C@@H]1Cc2cn(nn2)CCCC[C@@H](C(=O)N[C@@H](Cc2c[nH]c3ccccc23)C(=O)N[C@@H](CC(C)C)C(=O)N[C@@H](CCS(C)(=O)=O)C(=O)N[C@@H](CC(=O)O)C(=O)N[C@H](C(=O)N[C@@H](CCCCN)C(=O)N[C@@H](CCC(N)=O)C(=O)O)[C@@H](C)O)NC(=O)[C@H](C(C)C)NC(=O)[C@H](Cc2ccccc2)NC(=O)[C@H](CC(=O)O)NC1=O)C(=O)O)C(=O)O` [compound 21] (H-H[Aib]QGTFTSDK([γGlu-γGlu-Palmitoyl])SKYLD[Aib]RAA[dPra]DFV[Lys(N3)]WL[Met(O2)]DTKQ-OH; triazole 20-24), the “hGCGR/hGLP1R (hTone)” value is 4.5.

In the case of `CSCC[C@@H]1NC(=O)[C@H](CC(C)C)NC(=O)[C@H](Cc2c[nH]c3ccccc23)NC(=O)[C@H](NC(=O)[C@@H](NC(=O)[C@H](Cc2ccccc2)NC(=O)[C@H](CC(=O)O)NC(=O)[C@H](CCC(N)=O)NC(=O)[C@H](C)NC(=O)[C@H](C)NC(=O)[C@H](CCCNC(=N)N)NC(=O)C(C)(C)NC(=O)[C@H](CC(=O)O)NC(=O)[C@H](CC(C)C)NC(=O)[C@H](Cc2ccc(O)cc2)NC(=O)[C@H](CCCCN)NC(=O)[C@H](CO)NC(=O)[C@H](CCCCN)NC(=O)[C@H](CC(=O)O)NC(=O)[C@H](CO)NC(=O)[C@@H](NC(=O)[C@H](Cc2ccccc2)NC(=O)[C@@H](NC(=O)CNC(=O)[C@H](CCC(N)=O)NC(=O)C(C)(C)NC(=O)[C@@H](N)Cc2c[nH]cn2)[C@@H](C)O)[C@@H](C)O)C(C)C)Cc2cn(nn2)CCCC[C@@H](C(=O)N[C@H](C(=O)N[C@@H](CCCCN)C(=O)N[C@@H](CCC(N)=O)C(=O)O)[C@@H](C)O)NC1=O` [compound 11] (H-H[Aib]QGTFTSDKSKYLD[Aib]RAAQDFV[dPra]WLM[Lys(N3)]TKQ-OH; triazole 24-28; N-terminus assumed), where the note is “cAMP production, HitHunter cAMPXS, 1 hour, assay buffer with or without 20% human serum (not given)”, the EC50 (usually the concentration giving half of the maximal effect) is at least 5 nM.

Turning to `CC(C)C[C@H](NC(=O)[C@H](Cc1ccc(O)cc1)NC(=O)[C@H](CCCCN)NC(=O)[C@H](CO)NC(=O)[C@H](CCCCN)NC(=O)[C@H](CC(=O)O)NC(=O)[C@H](CO)NC(=O)[C@@H](NC(=O)[C@H](Cc1ccccc1)NC(=O)[C@@H](NC(=O)CNC(=O)[C@H](CCC(N)=O)NC(=O)[C@@H](CO)NC(=O)[C@@H](N)Cc1c[nH]cn1)[C@@H](C)O)[C@@H](C)O)C(=O)N[C@@H](CC(=O)O)C(=O)N[C@@H](CCC(=O)O)C(=O)N[C@@H](CCCNC(=N)N)C(=O)N[C@@H](C)C(=O)N[C@@H](C)C(=O)N[C@@H]1Cc2cn(nn2)CCCC[C@@H](C(=O)N[C@@H](Cc2c[nH]c3ccccc23)C(=O)N[C@@H](CC(C)C)C(=O)N[C@@H](CC(C)C)C(=O)N[C@@H](CC(=O)O)C(=O)N[C@H](C(N)=O)[C@@H](C)O)NC(=O)[C@H](C(C)C)NC(=O)[C@H](Cc2ccccc2)NC(=O)[C@H](CC(=O)O)NC1=O` [compound 9] (H-H[dS]QGTFTSDKSKYLDERAA[dPra]DFV[Lys(N3)]WLLDT-NH2; triazole 20-24), the “hGCGR/hGLP1R (hTone)” value is reported as 1.92.

Turning to `CCCCCCCCCCCCCCCC(=O)N[C@@H](CCC(=O)N[C@@H](CCC(=O)NCCCC[C@H](NC(=O)[C@H](CC(=O)O)NC(=O)[C@H](CO)NC(=O)[C@@H](NC(=O)[C@H](Cc1ccccc1)NC(=O)[C@@H](NC(=O)CNC(=O)[C@H](CCC(N)=O)NC(=O)C(C)(C)NC(=O)[C@@H](N)Cc1c[nH]cn1)[C@@H](C)O)[C@@H](C)O)C(=O)N[C@@H](CO)C(=O)N[C@@H](CCCCN)C(=O)N[C@@H](Cc1ccc(O)cc1)C(=O)N[C@@H](CC(C)C)C(=O)N[C@@H](CC(=O)O)C(=O)NC(C)(C)C(=O)N[C@@H](CCCNC(=N)N)C(=O)N[C@@H](C)C(=O)N[C@@H](C)C(=O)N[C@@H]1Cc2cn(nn2)CCCC[C@@H](C(=O)N[C@@H](Cc2c[nH]c3ccccc23)C(=O)N[C@@H](CC(C)C)C(=O)N[C@@H](CCCC)C(=O)N[C@@H](CC(=O)O)C(=O)N[C@H](C(N)=O)[C@@H](C)O)NC(=O)[C@H](C(C)C)NC(=O)[C@H](Cc2ccccc2)NC(=O)[C@H](CC(=O)O)NC1=O)C(=O)O)C(=O)O` [compound 17] (H-H[Aib]QGTFTSDK([γGlu-γGlu-Palmitoyl])SKYLD[Aib]RAA[dPra]DFV[Lys(N3)]WL[Nle]DT-NH2; triazole 20-24), the “hGCGR/hGLP1R (hTone)” value is given as 2.25.

Turning to `CCCCCCCCCCCCCCCC(=O)N[C@@H](CCC(=O)N[C@@H](CCC(=O)NCCCC[C@H](NC(=O)[C@H](CC(=O)O)NC(=O)[C@H](CO)NC(=O)[C@@H](NC(=O)[C@H](Cc1ccccc1)NC(=O)[C@@H](NC(=O)CNC(=O)[C@H](CCC(N)=O)NC(=O)C(C)(C)NC(=O)[C@@H](N)Cc1c[nH]cn1)[C@@H](C)O)[C@@H](C)O)C(=O)N[C@@H](CO)C(=O)N[C@@H](CCCCN)C(=O)N[C@@H](Cc1ccc(O)cc1)C(=O)N[C@@H](CC(C)C)C(=O)N[C@@H](CC(=O)O)C(=O)NC(C)(C)C(=O)N[C@@H](CCCNC(=N)N)C(=O)N[C@@H](C)C(=O)N[C@@H](C)C(=O)N[C@@H](CCC(N)=O)C(=O)N[C@@H](CC(=O)O)C(=O)N[C@@H](Cc1ccccc1)C(=O)N[C@H](C(=O)N[C@@H]1Cc2cn(nn2)CCCC[C@@H](C(=O)N[C@H](C(N)=O)[C@@H](C)O)NC(=O)[C@H](CCCC)NC(=O)[C@H](CC(C)C)NC(=O)[C@H](Cc2c[nH]c3ccccc23)NC1=O)C(C)C)C(=O)O)C(=O)O` [compound 19], the “hGCGR/hGLP1R (hTone)” value is 0.99.

For the molecule `CCCCCCCCCCCCCCCC(=O)N[C@@H](CCC(=O)N[C@@H](CCC(=O)NCCCC[C@H](NC(=O)[C@H](CC(=O)O)NC(=O)[C@H](CO)NC(=O)[C@@H](NC(=O)[C@H](Cc1ccccc1)NC(=O)[C@@H](NC(=O)CNC(=O)[C@H](CCC(N)=O)NC(=O)[C@@H](CO)NC(=O)[C@@H](N)Cc1c[nH]cn1)[C@@H](C)O)[C@@H](C)O)C(=O)N[C@@H](CO)C(=O)N[C@@H](CCCCN)C(=O)N[C@@H](Cc1ccc(O)cc1)C(=O)N[C@@H](CC(C)C)C(=O)N[C@@H](CC(=O)O)C(=O)N[C@@H](C)C(=O)N[C@@H]1Cc2cn(nn2)CCCC[C@@H](C(=O)N[C@@H](Cc2ccccc2)C(=O)N[C@H](C(=O)N[C@@H](CCC(N)=O)C(=O)N[C@@H](Cc2c[nH]c3ccccc23)C(=O)N[C@@H](CC(C)C)C(=O)N[C@@H](CC(C)C)C(=O)N[C@@H](CC(=O)O)C(=O)N[C@H](C(N)=O)[C@@H](C)O)C(C)C)NC(=O)[C@H](CCC(N)=O)NC(=O)[C@H](C)NC(=O)[C@H](C)NC1=O)C(=O)O)C(=O)O` [compound 14] (H-H[dS]QGTFTSDK([γGlu-γGlu-Palmitoyl])SKYLDA[dPra]AAQ[Lys(N3)]FVQWLLDT-NH2; triazole 17-21), the “hGCGR/hGLP1R (hTone)” value came to 0.5.
